Assay results from PubChem BioAssay AID1963832 (Molecular Pharmacology Branch, DTP, NCI, 2024).

Test system: 885724-159-R-J1-PDC complex spheroid viability
Experiment: Anticancer human tumor 885724-159-R-J1-PDC patient-derived pancreatic adenocarcinoma cell line growth inhibition [POLQ]
Settings: for IC50: curve of first compound; for viability, T/C: stronger effect = lower value
How it was run: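 Three-cell-type spheroids modelling solid tumor plus stroma served as the readout system; POL inhibitors were tested individually and in combination, concentration ranges set by clinical Cmax where known.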

[1] = second compound 0.0316 µM, first compound 0.0316 µM
[2] = second compound 0.0316 µM, first compound 0.1 µM
[3] = second compound 0.0316 µM, first compound 0.316 µM
[4] = second compound 0.0316 µM, first compound 1 µM
[5] = second compound 0.0316 µM, first compound 3.16 µM
[6] = second compound 0.0316 µM, first compound 10 µM
[7] = second compound 0.1 µM, first compound 0.0316 µM
[8] = second compound 0.1 µM, first compound 0.1 µM
[9] = second compound 0.1 µM, first compound 0.316 µM
[10] = second compound 0.1 µM, first compound 1 µM
[11] = second compound 0.1 µM, first compound 3.16 µM
[12] = second compound 0.1 µM, first compound 10 µM
[13] = second compound 0.316 µM, first compound 0.0316 µM
[14] = second compound 0.316 µM, first compound 0.1 µM
[15] = second compound 0.316 µM, first compound 0.316 µM
[16] = second compound 0.316 µM, first compound 1 µM
[17] = second compound 0.316 µM, first compound 3.16 µM
[18] = second compound 0.316 µM, first compound 10 µM
[19] = second compound 1 µM, first compound 0.0316 µM
[20] = second compound 1 µM, first compound 0.1 µM
[21] = second compound 1 µM, first compound 0.316 µM
[22] = second compound 1 µM, first compound 1 µM
[23] = second compound 1 µM, first compound 3.16 µM
[24] = second compound 1 µM, first compound 10 µM
[25] = second compound 3.16 µM, first compound 0.0316 µM
[26] = second compound 3.16 µM, first compound 0.1 µM
[27] = second compound 3.16 µM, first compound 0.316 µM
[28] = second compound 3.16 µM, first compound 1 µM
[29] = second compound 3.16 µM, first compound 3.16 µM
[30] = second compound 3.16 µM, first compound 10 µM
[31] = second compound 10 µM, first compound 0.0316 µM
[32] = second compound 10 µM, first compound 0.1 µM
[33] = second compound 10 µM, first compound 0.316 µM
[34] = second compound 10 µM, first compound 1 µM
[35] = second compound 10 µM, first compound 3.16 µM
[36] = second compound 10 µM, first compound 10 µM
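Note: spheroids exposed to compounds for 7 days.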

Q: Which results are given for `CC1COCCN1c1cc(C2(S(C)(=N)=O)CC2)nc(-c2ccnc3[nH]ccc23)n1` (stereo not drawn) + COC1C(OC(N)=O)C(O)C(Oc2ccc3c(O)c(NC(=O)c4ccc(O)c(CC=C(C)C)c4)c(=O)oc3c2C)OC1(C)C?
A: IC50 (second compound 0.0316 µM): 6.58 µM; IC50 (second compound 0.1 µM): 7.53 µM; IC50 (second compound 0.316 µM): 4.74 µM; IC50 (second compound 1 µM): 3.83 µM; IC50 (second compound 3.16 µM): 5.46 µM; IC50 (second compound 10 µM): 5.74 µM; viability, T/C [1]: 95.9%; viability, T/C [2]: 96.8%; viability, T/C [3]: 93%; viability, T/C [4]: 67.8%; viability, T/C [5]: 60.3%; viability, T/C [6]: 44.6%; viability, T/C [7]: 102%; viability, T/C [8]: 89.7%; viability, T/C [9]: 95.4%; viability, T/C [10]: 73.6%; viability, T/C [11]: 59.1%; viability, T/C [12]: 47%; viability, T/C [13]: 87.5%; viability, T/C [14]: 98%; viability, T/C [15]: 95.9%; viability, T/C [16]: 68.7%; viability, T/C [17]: 56.5%; viability, T/C [18]: 43.9%; viability, T/C [19]: 101%; viability, T/C [20]: 102%; viability, T/C [21]: 89%; viability, T/C [22]: 72%; viability, T/C [23]: 49.1%; viability, T/C [24]: 45.5%; viability, T/C [25]: 102%; viability, T/C [26]: 85.6%; viability, T/C [27]: 91.3%; viability, T/C [28]: 72.6%; viability, T/C [29]: 54.8%; viability, T/C [30]: 43.9%; viability, T/C [31]: 111%; viability, T/C [32]: 92.2%; viability, T/C [33]: 94.1%; viability, T/C [34]: 72.7%; viability, T/C [35]: 51.7%; viability, T/C [36]: 47%

Q: With `CCc1cc2c(N3CCc4c(cc(Cn5ccnc5)cc4-c4cn(C)nc4C(F)(F)F)C3=O)cc(C)nc2c(OC)n1` + COC1C(OC(N)=O)C(O)C(Oc2ccc3c(O)c(NC(=O)c4ccc(O)c(CC=C(C)C)c4)c(=O)oc3c2C)OC1(C)C as the compound, how does the IC50 (second compound 0.0316 µM) read?
A: > 10 µM

Q: And the IC50 (second compound 0.1 µM)?
A: > 10 µM

Q: And the IC50 (second compound 0.316 µM)?
A: > 10 µM

Q: And the IC50 (second compound 1 µM)?
A: > 10 µM

Q: What about the IC50 (second compound 3.16 µM) of the same compound?
A: > 10 µM

Q: What about the IC50 (second compound 10 µM) of the same compound?
A: > 10 µM

Q: And the viability, T/C [1]?
A: 87.4%

Q: And the viability, T/C [2]?
A: 79.7%

Q: What about the viability, T/C [3] of the same compound?
A: 75.3%

Q: What about the viability, T/C [4] of the same compound?
A: 68.9%

Q: What about the viability, T/C [5] of the same compound?
A: 84.7%

Q: And the viability, T/C [6]?
A: 66.2%

Q: And the viability, T/C [7]?
A: 89%

Q: And the viability, T/C [8]?
A: 78.6%

Q: And the viability, T/C [9]?
A: 77%

Q: What about the viability, T/C [10] of the same compound?
A: 77.1%

Q: And the viability, T/C [11]?
A: 69.7%

Q: What about the viability, T/C [12] of the same compound?
A: 70.4%

Q: And the viability, T/C [13]?
A: 88.7%

Q: And the viability, T/C [14]?
A: 71.8%

Q: And the viability, T/C [15]?
A: 90.4%

Q: And the viability, T/C [16]?
A: 75.4%

Q: What about the viability, T/C [17] of the same compound?
A: 79.2%

Q: What about the viability, T/C [18] of the same compound?
A: 67.6%

Q: What about the viability, T/C [19] of the same compound?
A: 80%

Q: And the viability, T/C [20]?
A: 73.5%

Q: And the viability, T/C [21]?
A: 79.9%

Q: And the viability, T/C [22]?
A: 82.5%

Q: What about the viability, T/C [23] of the same compound?
A: 74.5%

Q: And the viability, T/C [24]?
A: 71.9%

Q: And the viability, T/C [25]?
A: 80.3%

Q: And the viability, T/C [26]?
A: 72.9%

Q: What about the viability, T/C [27] of the same compound?
A: 82.6%

Q: And the viability, T/C [28]?
A: 76.7%

Q: And the viability, T/C [29]?
A: 80.1%

Q: What about the viability, T/C [30] of the same compound?
A: 75.2%

Q: And the viability, T/C [31]?
A: 78.4%

Q: And the viability, T/C [32]?
A: 80.9%

Q: And the viability, T/C [33]?
A: 77.2%

Q: And the viability, T/C [34]?
A: 75.1%

Q: And the viability, T/C [35]?
A: 75.9%

Q: And the viability, T/C [36]?
A: 72%

Q: With `CCc1cc2c(N3CCc4c(cc(Cn5ccnc5)cc4-c4cn(C)nc4C(F)(F)F)C3=O)ccnc2c(OC)n1` + COC1C(OC(N)=O)C(O)C(Oc2ccc3c(O)c(NC(=O)c4ccc(O)c(CC=C(C)C)c4)c(=O)oc3c2C)OC1(C)C as the compound, how does the IC50 (second compound 0.0316 µM) read?
A: > 10 µM

Q: And the IC50 (second compound 0.1 µM)?
A: > 10 µM

Q: What about the IC50 (second compound 0.316 µM) of the same compound?
A: > 10 µM

Q: And the IC50 (second compound 1 µM)?
A: > 10 µM

Q: And the IC50 (second compound 3.16 µM)?
A: > 10 µM

Q: And the IC50 (second compound 10 µM)?
A: > 10 µM

Q: What about the viability, T/C [1] of the same compound?
A: 90.9%

Q: And the viability, T/C [2]?
A: 76.4%

Q: And the viability, T/C [3]?
A: 75.5%

Q: What about the viability, T/C [4] of the same compound?
A: 75%

Q: What about the viability, T/C [5] of the same compound?
A: 75%

Q: What about the viability, T/C [6] of the same compound?
A: 70.3%

Q: And the viability, T/C [7]?
A: 86.8%

Q: And the viability, T/C [8]?
A: 82.1%

Q: What about the viability, T/C [9] of the same compound?
A: 80.1%

Q: What about the viability, T/C [10] of the same compound?
A: 82.2%

Q: And the viability, T/C [11]?
A: 76.3%

Q: What about the viability, T/C [12] of the same compound?
A: 68.2%

Q: What about the viability, T/C [13] of the same compound?
A: 89.3%

Q: And the viability, T/C [14]?
A: 86.1%

Q: What about the viability, T/C [15] of the same compound?
A: 72.3%

Q: And the viability, T/C [16]?
A: 70.9%

Q: And the viability, T/C [17]?
A: 75.5%

Q: And the viability, T/C [18]?
A: 64.6%

Q: What about the viability, T/C [19] of the same compound?
A: 85.2%

Q: And the viability, T/C [20]?
A: 86%

Q: What about the viability, T/C [21] of the same compound?
A: 79.5%

Q: And the viability, T/C [22]?
A: 83.1%

Q: And the viability, T/C [23]?
A: 77%

Q: And the viability, T/C [24]?
A: 59.1%

Q: What about the viability, T/C [25] of the same compound?
A: 87.5%

Q: What about the viability, T/C [26] of the same compound?
A: 80.3%

Q: What about the viability, T/C [27] of the same compound?
A: 79.8%

Q: What about the viability, T/C [28] of the same compound?
A: 72.5%

Q: And the viability, T/C [29]?
A: 75.4%

Q: And the viability, T/C [30]?
A: 69.5%

Q: What about the viability, T/C [31] of the same compound?
A: 80.6%

Q: And the viability, T/C [32]?
A: 76.8%

Q: What about the viability, T/C [33] of the same compound?
A: 76.6%

Q: And the viability, T/C [34]?
A: 80.4%

Q: And the viability, T/C [35]?
A: 79.5%

Q: What about the viability, T/C [36] of the same compound?
A: 64.1%

Q: How did the IC50 (second compound 0.0316 µM) turn out when `COc1cc2cc(C(=O)CCC(=O)O)sc2cc1OC` + COC1C(OC(N)=O)C(O)C(Oc2ccc3c(O)c(NC(=O)c4ccc(O)c(CC=C(C)C)c4)c(=O)oc3c2C)OC1(C)C was run?
A: > 10 µM

Q: What about the IC50 (second compound 0.1 µM) of the same compound?
A: > 10 µM

Q: And the IC50 (second compound 0.316 µM)?
A: > 10 µM

Q: And the IC50 (second compound 1 µM)?
A: > 10 µM

Q: And the IC50 (second compound 3.16 µM)?
A: > 10 µM

Q: And the IC50 (second compound 10 µM)?
A: > 10 µM

Q: What about the viability, T/C [1] of the same compound?
A: 96.4%

Q: What about the viability, T/C [2] of the same compound?
A: 97.6%

Q: What about the viability, T/C [3] of the same compound?
A: 100%

Q: What about the viability, T/C [4] of the same compound?
A: 93.6%

Q: What about the viability, T/C [5] of the same compound?
A: 96.8%

Q: And the viability, T/C [6]?
A: 86.2%

Q: And the viability, T/C [7]?
A: 100%

Q: And the viability, T/C [8]?
A: 96.3%

Q: What about the viability, T/C [9] of the same compound?
A: 102%

Q: And the viability, T/C [10]?
A: 109%

Q: What about the viability, T/C [11] of the same compound?
A: 109%

Q: What about the viability, T/C [12] of the same compound?
A: 86.6%

Q: And the viability, T/C [13]?
A: 101%

Q: What about the viability, T/C [14] of the same compound?
A: 101%

Q: And the viability, T/C [15]?
A: 97.2%

Q: And the viability, T/C [16]?
A: 103%

Q: What about the viability, T/C [17] of the same compound?
A: 113%

Q: And the viability, T/C [18]?
A: 81%

Q: And the viability, T/C [19]?
A: 109%

Q: And the viability, T/C [20]?
A: 92.5%

Q: And the viability, T/C [21]?
A: 95.6%

Q: And the viability, T/C [22]?
A: 96%

Q: And the viability, T/C [23]?
A: 104%

Q: What about the viability, T/C [24] of the same compound?
A: 76.2%

Q: What about the viability, T/C [25] of the same compound?
A: 100%

Q: What about the viability, T/C [26] of the same compound?
A: 96.6%

Q: What about the viability, T/C [27] of the same compound?
A: 95.9%

Q: And the viability, T/C [28]?
A: 101%

Q: What about the viability, T/C [29] of the same compound?
A: 113%

Q: What about the viability, T/C [30] of the same compound?
A: 79.8%

Q: And the viability, T/C [31]?
A: 96.8%

Q: What about the viability, T/C [32] of the same compound?
A: 105%

Q: What about the viability, T/C [33] of the same compound?
A: 111%

Q: And the viability, T/C [34]?
A: 93.4%

Q: And the viability, T/C [35]?
A: 87.5%

Q: And the viability, T/C [36]?
A: 83.4%
